Measured values published in PubChem BioAssay (NCI).
“And” between values parts separate entries of the source, which are not always exact repeats. Equal entries are not always repeated.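 Five compound concentrations were applied to cells in 96-well plates for 48 hours; endpoints were derived by simple linear interpolation of the resulting dose-response curve. GI50 is the concentration that inhibits growth by half. TGI: total growth inhibition.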

Key:
Test in all cases: NCI tumour cell line growth inhibition, 48 h
A549 NSCLC = system: A549 NSCLC
EKVX NSCLC = system: EKVX NSCLC
HCC-2998 colon = system: HCC-2998 colon
HCT-116 colon = system: HCT-116 colon
HOP-62 NSCLC = system: HOP-62 NSCLC
SK-MEL-2 melanoma = system: SK-MEL-2 melanoma
SK-MEL-28 melanoma = system: SK-MEL-28 melanoma
SK-OV-3 ovarian = system: SK-OV-3 ovarian
SN12C renal = system: SN12C renal
SR leukemia = system: SR leukemia

| SMILES | GI50 (A549 NSCLC) | TGI (A549 NSCLC) | GI50 (EKVX NSCLC) | TGI (EKVX NSCLC) | GI50 (HCC-2998 colon) | TGI (HCC-2998 colon) | GI50 (HCT-116 colon) | TGI (HCT-116 colon) | GI50 (HOP-62 NSCLC) | TGI (HOP-62 NSCLC) | GI50 (SK-MEL-2 melanoma) | TGI (SK-MEL-2 melanoma) | GI50 (SK-MEL-28 melanoma) | TGI (SK-MEL-28 melanoma) | GI50 (SK-OV-3 ovarian) | TGI (SK-OV-3 ovarian) | GI50 (SN12C renal) | TGI (SN12C renal) | GI50 (SR leukemia) | TGI (SR leukemia) |
| --- | --- | --- | --- | --- | --- | --- | --- | --- | --- | --- | --- | --- | --- | --- | --- | --- | --- | --- | --- | --- |
| O=C(c1cccs1)C1NO[N+]([O-])=C1c1cccs1 (centres undefined) | 9.89 µM | 34.4 µM | 3.71 µM | 10.9 µM | 17.2 µM | 31.7 µM | 3.03 µM | 10.2 µM | 4.77 µM | 11.4 µM | 11.2 µM | 24.5 µM | 2.52 µM | 6.8 µM | 18.6 µM | 32.8 µM | 9.49 µM | 21.8 µM | 2.08 µM | 4.73 µM |
| CCOc1ccc(Nc2c3ccccc3nc3ccccc23)cc1 | 0.734 µM and 0.887 µM | 9.63 µM and 12.5 µM | 0.863 µM and 0.613 µM | 7.56 µM and 6.1 µM | 0.816 µM | 2.78 µM and 0.65 µM | 0.335 µM and 0.318 µM | 1.32 µM and 2.81 µM | 0.416 µM and 0.672 µM | 5.25 µM and 13.1 µM | 0.402 µM and 0.413 µM | 3.76 µM and 1.69 µM | 0.855 µM and 0.378 µM | 6.51 µM and 2.32 µM | 0.501 µM and 0.323 µM | 6.06 µM and 7.73 µM | 1.08 µM and 1 µM | 14.5 µM and 9.76 µM | 0.307 µM and 0.042 µM | 6.89 µM and 1.11 µM |
| CC(C)[O-].CC(C)[O-].CN(CCN(C)Cc1cc(F)cc(F)c1[O-])Cc1cc(F)cc(F)c1[O-].[Ti+4] | 0.892 µM | 7.95 µM | 1.31 µM | 10 µM | 2.22 µM | 7.52 µM | 0.792 µM | 4.86 µM | 0.634 µM | 3.68 µM | 1.52 µM | 4.95 µM | 0.692 µM | 2.17 µM | 0.634 µM | 9.09 µM | 1.53 µM | 7.31 µM | 0.512 µM |  |
| CC(C)Oc1ccc(C(=O)Cn2ccnc2)cc1-n1c(CN2CCN(C(=O)COc3ccc(Cl)cc3)CC2)nc2ccccc2c1=O | 18.4 µM | > 72.1 µM | 16.5 µM | 97 µM | 15.7 µM | 31 µM | 8.68 µM | 24.9 µM | 15 µM | 44.9 µM | 17.6 µM | 38.5 µM | 14.1 µM | 29.9 µM | 20 µM | 76.2 µM | 14.6 µM | 33.6 µM | 5.64 µM | 36.8 µM |
| Cc1ccc(-n2nc(C(C)(C)C)cc2NC(=O)NCc2cc(F)ccc2Oc2ccc3c(cnn3CCO)c2)cc1 | > 10 µM and 11.7 µM | > 100 µM | > 10 µM | > 10 µM | > 10 µM and 5.39 µM | > 48.8 µM | 2.34 µM and 2.46 µM | > 36.3 µM | > 10 µM and 8.95 µM | > 81.5 µM | 2.98 µM and 4.42 µM | > 10 µM and 13 µM | 0.511 µM and 0.989 µM | > 20.9 µM | > 10 µM and 9.24 µM | > 83.9 µM | > 10 µM and 6.27 µM | > 100 µM | > 10 µM and 1.12 µM | > 10 µM and 4.33 µM |
| O=C(Cl)C1=C(c2ccccc2)C1c1ccccc1 (centres undefined) |  | > 100 µM |  | > 100 µM |  | > 100 µM |  | > 100 µM |  | > 100 µM |  | > 100 µM |  | > 100 µM |  | > 100 µM |  | > 100 µM |  | > 100 µM |
| Cc1cccc(C)c1N1C(=O)C(=O)C(c2nc3ccccc3s2)C(=Nc2cccc3c(=O)[nH][nH]c(=O)c23)C1=O (centres undefined) |  | > 100 µM |  | > 100 µM |  | > 100 µM |  | > 100 µM |  | > 100 µM |  | > 100 µM |  | > 100 µM |  | > 100 µM |  | > 100 µM |  | > 100 µM |
